Converted amounts (≈) assume the structure as drawn.
Assays:
Format in all cases: cell-based
[1] = test system: Acinetobacter baumannii (carbapenem-resistant clinical isolates; ATCC19606); assay: MIC by micro broth dilution (CLSI), Acinetobacter baumannii; conditions: Acinetobacter baumannii; for MIC50 / MIC90: ATCC19606, Clinical strain; for MIC50: read-out: MIC50; for MIC90: read-out: MIC90; for MIC: Standard strain ATCC19606, read-out: MIC
Source text: (§1) The test bacteria were one strain of clinically isolated carbapenem-resistant Escherichia coli, two strains of carbapenem-resistant Acinetobacter baumannii, two strains of methicillin-resistant Staphylococcus aureus, two strains of sensitive Staphylococcus aureus, and 7 strains of Klebsiella pneumoniae. Duplicate strains isolated from the same patient were eliminated. There were also […] quality control strains Escherichia coli ATCC25922, Acinetobacter baumannii ATCC19606, Staphylococcus aureus ATCC29213, Klebsiella pneumoniae ATCC BAA-1705, ATCC 43816, ATCC BAA-2472, ATCC-BAA-1898, ATCC-BAA-1899, NCTC 13440 and ATCC-BAA-2470. There were 24 strains in total.
(§2) According to the recommendations of relevant documents of the American Clinical and Laboratory Standards Institute (CLSI), the micro broth dilution method was used to determine the MIC of the compounds of the present invention against clinically isolated strains. • 3.1 Formulation of antibacterial drug: All the compounds of the present invention were dissolved in DMSO. The drug concentration range was 128 mg/L to 0.06 mg/L. • 3.2 Culture medium: The drug susceptibility test used cation adjusted Mueller-Hinton broth (CAMHB). • 3.3 Amount of inoculum: The test bacteria cultured overnight were adjusted to 0.5 McFarland turbidity by the direct colony suspension method, and diluted 100 folds, the final inoculum amount was 10^5 CFU/mL. • 3.4 Culture conditions: The test bacteria were cultured at 35±2° C. for 20 hours in air.
(§3) The drug susceptibility test results were interpretated by reference to CLSI 2019 M100 29th edition criteria.
(§4) The quality control strains of the drug susceptibility test were Escherichia coli ATCC 25922, Acinetobacter baumannii ATCC 19606, Staphylococcus aureus ATCC 29213, Klebsiella pneumoniae ATCC BAA-1705, ATCC 43816, ATCC BAA-2472, ATCC-BAA-1898, ATCC-BAA-1899, NCTC 13440 and ATCC-BAA-2470.
(§5) The results of drug susceptibility test were statistically analyzed by WHONET software (version 5.6).

[2] = test system: Escherichia coli (carbapenem-resistant clinical isolate; ATCC25922); assay: MIC by micro broth dilution (CLSI), Escherichia coli; conditions: Escherichia coli; for MIC50 / MIC90: ATCC25922, Clinical strain; for MIC50: read-out: MIC50; for MIC90: read-out: MIC90; for MIC: Standard strain ATCC25922, read-out: MIC
Source text: as §1, §2, §3, §4, §5

[3] = test system: Staphylococcus aureus (methicillin-resistant and sensitive clinical isolates; ATCC29213); assay: MIC by micro broth dilution (CLSI), Staphylococcus aureus; conditions: for MIC50 / MIC90: Clinical strain; for MIC50: read-out: MIC50; for MIC90: read-out: MIC90; for MIC: Standard strain ATCC29213, read-out: MIC
Source text: as §1, §2, §3, §4, §5

Row | SMILES | MIC50 [1] | MIC90 [1] | MIC50 [2] | MIC90 [2] | MIC [2] | MIC [1] | MIC50 [3] | MIC90 [3] | MIC [3]
1 | CNc1c([N+](=O)[O-])c(O)c2ncccc2c1Cl [Example 7, 5-Chloro-6-(methylamino)-7-nitroquinolin-8-ol] | 32 µg/mL (≈ 126 µM) | 64 µg/mL (≈ 252 µM) | 64 µg/mL (≈ 252 µM) | 128 µg/mL (≈ 505 µM) | 64 µg/mL (≈ 252 µM) | 64 µg/mL (≈ 252 µM) | 8 µg/mL (≈ 31.5 µM) | 16 µg/mL (≈ 63.1 µM) | 16 µg/mL (≈ 63.1 µM)
2 | O=[N+]([O-])c1ccc2c(Cl)c(-c3ccccc3)cnc2c1O [Example 82, 4-chloro-7-nitro-3-phenylquinolin-8-ol] | > 128 µg/mL | > 128 µg/mL | > 128 µg/mL | > 128 µg/mL | > 128 µg/mL | 128 µg/mL (≈ 426 µM) | 1 µg/mL (≈ 3.33 µM) | 1 µg/mL (≈ 3.33 µM) | 1 µg/mL (≈ 3.33 µM)
3 | Cc1cnc2c(O)c([N+](=O)[O-])cc(Cl)c2c1 [Example 83, 5-chloro-3-methyl-7-nitroquinolin-8-ol] | 32 µg/mL (≈ 134 µM) | 64 µg/mL (≈ 268 µM) | 128 µg/mL (≈ 536 µM) | 128 µg/mL (≈ 536 µM) | 32 µg/mL (≈ 134 µM) | 16 µg/mL (≈ 67 µM) | 4 µg/mL (≈ 16.8 µM) | 4 µg/mL (≈ 16.8 µM) | 4 µg/mL (≈ 16.8 µM)
4 | Cc1cnc2c(O)c([N+](=O)[O-])cc(C3CC3)c2c1 [Example 84, 5-cyclopropyl-3-methyl-7-nitroquinolin-8-ol] | 64 µg/mL (≈ 262 µM) | 128 µg/mL (≈ 524 µM) | > 128 µg/mL | > 128 µg/mL | 64 µg/mL (≈ 262 µM) | 64 µg/mL (≈ 262 µM) | 4 µg/mL (≈ 16.4 µM) | 64 µg/mL (≈ 262 µM) | 4 µg/mL (≈ 16.4 µM)
5 | O=[N+]([O-])c1ccc2c(CN3CCCCC3)ccnc2c1O [Example 85, 7-nitro-4-(piperidin-1-yl-methyl)quinolin-8-ol] | 32 µg/mL (≈ 111 µM) | 64 µg/mL (≈ 223 µM) | 64 µg/mL (≈ 223 µM) | 64 µg/mL (≈ 223 µM) | 64 µg/mL (≈ 223 µM) | 32 µg/mL (≈ 111 µM) | 16 µg/mL (≈ 55.7 µM) | 64 µg/mL (≈ 223 µM) | 64 µg/mL (≈ 223 µM)
6 | Cc1cnc2c(O)c([N+](=O)[O-])cc(F)c2c1 [Example 86, 5-fluoro-3-methyl-7-nitroquinolin-8-ol] | 16 µg/mL (≈ 72 µM) | 32 µg/mL (≈ 144 µM) | 32 µg/mL (≈ 144 µM) | 32 µg/mL (≈ 144 µM) | 16 µg/mL (≈ 72 µM) | 16 µg/mL (≈ 72 µM) | 8 µg/mL (≈ 36 µM) | > 128 µg/mL | 8 µg/mL (≈ 36 µM)
7 | O=[N+]([O-])c1cc(CN2CCOCC2)c2cccnc2c1O [Example 87, 5-(morpholinomethyl)-7-nitroquinolin-8-ol acetate] | > 128 µg/mL | > 128 µg/mL | > 128 µg/mL | > 128 µg/mL | 128 µg/mL | 128 µg/mL | 128 µg/mL | > 128 µg/mL | 128 µg/mL
8 | CCOC(=O)c1cnc2c(O)c([N+](=O)[O-])ccc2c1 [Example 88, ethyl 8-hydroxy-7-nitroquinoline-3-carboxylate] | > 128 µg/mL | > 128 µg/mL | > 128 µg/mL | > 128 µg/mL | > 128 µg/mL | 128 µg/mL (≈ 488 µM) | 4 µg/mL (≈ 15.3 µM) | 16 µg/mL (≈ 61 µM) | 16 µg/mL (≈ 61 µM)

Now from value to compound:

Row | MIC50 [1] | MIC90 [1] | MIC50 [2] | MIC90 [2] | MIC [2] | MIC [1] | MIC50 [3] | MIC90 [3] | MIC [3] | SMILES
9 | 32 µg/mL (≈ 157 µM) | 32 µg/mL (≈ 157 µM) | – | – | – | – | – | – | – | Cc1cc([N+](=O)[O-])c(O)c2ncccc12 [Example 4, 5-Methyl-7-nitroquinolin-8-ol]
10 | 16 µg/mL (≈ 62.5 µM) | 32 µg/mL (≈ 125 µM) | 16 µg/mL (≈ 62.5 µM) | 128 µg/mL (≈ 500 µM) | 16 µg/mL (≈ 62.5 µM) | 8 µg/mL (≈ 31.2 µM) | 8 µg/mL (≈ 31.2 µM) | 8 µg/mL (≈ 31.2 µM) | 8 µg/mL (≈ 31.2 µM) | O=[N+]([O-])c1ccc2c(OC(F)F)ccnc2c1O [Example 77, 4-(difluoromethoxy)-7-nitroquinolin-8-ol]
11 | > 128 µg/mL | > 128 µg/mL | > 128 µg/mL | > 128 µg/mL | > 128 µg/mL | > 128 µg/mL | 128 µg/mL (≈ 598 µM) | 128 µg/mL (≈ 598 µM) | 128 µg/mL (≈ 598 µM) | C#Cc1ccnc2c(O)c([N+](=O)[O-])ccc12 [Example 80, 4-ethynyl-7-nitroquinolin-8-ol]
12 | 16 µg/mL (≈ 66.6 µM) | 32 µg/mL (≈ 133 µM) | 32 µg/mL (≈ 133 µM) | 128 µg/mL (≈ 533 µM) | 16 µg/mL (≈ 66.6 µM) | 16 µg/mL (≈ 66.6 µM) | 8 µg/mL (≈ 33.3 µM) | 16 µg/mL (≈ 66.6 µM) | 16 µg/mL (≈ 66.6 µM) | O=[N+]([O-])c1ccc2c(C(F)F)ccnc2c1O [Example 81, 4-(difluoromethyl)-7-nitroquinolin-8-ol]
